# Reference: patent US9738655B2, “Tetrahydroisoquinolines containing substituted azoles as factor XIa inhibitors” (BRISTOL-MYERS SQUIBB COMPANY, priority 2013, dated 2017)
# Counter-ions that a name gives are not always drawn. Like-named read-outs stand apart in the source and are kept apart here.
# How the values were obtained:
# [1] = molecular target: purified human plasma kallikrein (Homo sapiens (Human), UniProt P03952); assay: Plasma kallikrein enzyme inhibition assay (chromogenic substrate S-2302); format: biochemical
# [2] = molecular target: purified human Factor XIa (Homo sapiens (Human), UniProt P03951); assay: Factor XIa enzyme inhibition assay (chromogenic substrate S-2366)
# [3] = measured at 25° C. (no asterisk)
# [4] = read-out: Factor XIa Ki, measured at 25° C.
# [5] = measured at 25° C. (no asterisk), TFA salt
# [6] = read-out: Factor XIa Ki, measured at 25° C., TFA salt
# purified human Factor XIa, sequence (P03951 388-625): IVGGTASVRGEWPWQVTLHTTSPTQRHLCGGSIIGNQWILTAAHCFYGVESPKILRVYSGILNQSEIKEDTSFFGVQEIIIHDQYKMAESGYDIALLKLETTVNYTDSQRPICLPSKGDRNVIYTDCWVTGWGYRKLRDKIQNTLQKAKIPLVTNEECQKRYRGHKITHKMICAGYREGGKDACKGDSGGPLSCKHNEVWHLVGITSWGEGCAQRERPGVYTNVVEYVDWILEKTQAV
# purified human Factor XIa, sequence (P03951 19-387 partner): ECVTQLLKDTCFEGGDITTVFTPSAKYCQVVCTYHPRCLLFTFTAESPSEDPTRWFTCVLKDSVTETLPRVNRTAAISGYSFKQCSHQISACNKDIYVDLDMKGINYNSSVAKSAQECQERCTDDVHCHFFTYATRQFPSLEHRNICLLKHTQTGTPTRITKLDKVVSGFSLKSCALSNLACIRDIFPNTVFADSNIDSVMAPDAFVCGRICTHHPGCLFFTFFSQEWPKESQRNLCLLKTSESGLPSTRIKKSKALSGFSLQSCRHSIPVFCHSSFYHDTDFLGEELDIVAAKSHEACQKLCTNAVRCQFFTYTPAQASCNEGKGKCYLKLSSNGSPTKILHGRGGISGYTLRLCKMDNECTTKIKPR
# purified human plasma kallikrein, sequence (P03952 391-638): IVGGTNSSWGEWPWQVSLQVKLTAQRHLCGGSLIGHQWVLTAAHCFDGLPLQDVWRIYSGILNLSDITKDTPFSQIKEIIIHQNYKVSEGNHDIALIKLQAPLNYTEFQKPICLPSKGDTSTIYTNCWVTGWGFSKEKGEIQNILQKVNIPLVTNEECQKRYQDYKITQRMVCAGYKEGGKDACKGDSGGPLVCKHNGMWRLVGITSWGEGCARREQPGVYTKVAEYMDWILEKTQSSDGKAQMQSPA
# purified human plasma kallikrein, sequence (P03952 20-390 partner): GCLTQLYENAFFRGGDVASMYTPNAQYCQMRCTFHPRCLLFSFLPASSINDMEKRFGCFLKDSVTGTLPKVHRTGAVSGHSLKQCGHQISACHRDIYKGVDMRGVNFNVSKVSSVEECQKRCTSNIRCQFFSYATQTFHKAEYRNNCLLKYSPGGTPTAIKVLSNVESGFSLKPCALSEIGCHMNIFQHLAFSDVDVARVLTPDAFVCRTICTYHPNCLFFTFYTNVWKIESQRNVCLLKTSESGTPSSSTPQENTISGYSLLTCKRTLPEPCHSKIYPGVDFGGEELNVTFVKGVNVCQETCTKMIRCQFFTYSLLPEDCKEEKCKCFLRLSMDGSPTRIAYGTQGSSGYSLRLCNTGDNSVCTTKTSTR
Structure (SMILES),"Ki [1, 3]","Ki [2, 4]",also measured
"CN1CCN(c2cccc3c2CCN(C(=O)c2cn(-c4cccc(Cl)c4F)nn2)[C@@H]3C(=O)Nc2ccc(C(=O)O)cc2)CC1=O [Example 287, (S)-4-(2-(1-(3-chloro-2-fluorophenyl)-1H-1,2,3-triazole-4-carbonyl)-5-(4-methyl-3-oxopiperizin-1-yl)-1,2,3,4-tetrahydroisoquinoline-1-carboxamido)benzoic acid, TFA salt]",1.82 nM,< 5 nM,
"CN1CCN(c2cccc3c2CCN(C(=O)c2cn(-c4cccc(Cl)c4F)nn2)[C@H]3C(=O)Nc2ccc(C(=O)O)cc2)CC1=O [Example 288, (R)-4-(2-(1-(3-chloro-2-fluorophenyl)-1H-1,2,3-triazole-4-carbonyl)-5-(4-methyl-3-oxopiperazin-1-yl)-1,2,3,4-tetrahydroisoquinoline-1-carboxamido)benzoic acid, TFA salt]",824 nM,155 nM,
"COC1CCN(c2cccc3c2CCN(C(=O)C2CC(c4c(C(F)(F)F)ccc(Cl)c4F)=NO2)C3C(=O)Nc2ccc(C(=O)O)cc2)CC1 (stereo not shown) [Example 297, 4-(2-(3-(3-chloro-2-fluoro-6-(trifluoromethyl)phenyl)-4,5-dihydroisoxazole-5-carbonyl)-5-(4-methoxypiperidin-1-yl)-1,2,3,4-tetrahydroisoquinoline-1-carboxamido)benzoic acid, TFA salt]",,,"Ki [1, 5]: 1280 nM; Ki [2, 6]: 46.3 nM"
"COC1CCN(c2cccc3c2CCN(C(=O)C2CC(c4c(C(F)(F)F)ccc(Cl)c4F)=NO2)C3C(=O)Nc2ccc(C(=O)O)cc2)CC1 (stereo not shown) [Example 298, 4-(2-(3-(3-chloro-2-fluoro-6-(trifluoromethyl)phenyl)-4,5-dihydroisoxazole-5-carbonyl)-5-(4-methoxypiperidin-1-yl)-1,2,3,4-tetrahydroisoquinoline-1-carboxamido)benzoic acid, TFA salt]",,,"Ki [1, 5]: 1010 nM; Ki [2, 6]: 64.8 nM"
"CO[C@@H]1CCN(c2cccc3c2CCN(C(=O)[C@H]2CC(c4cccc(Cl)c4F)=NO2)[C@H]3C(=O)Nc2ccc(C(=O)O)cc2)C1 [Example 299, 4-((R)-2-((R)-3-(3-chloro-2-fluorophenyl)-4,5-dihydroisoxazole-5-carbonyl)-5-((R)-3-methoxypyrrolidin-1-yl)-1,2,3,4-tetrahydroisoquinoline-1-carboxamido)benzoic acid, TFA salt]",316 nM,62.7 nM,
"CO[C@@H]1CCN(c2cccc3c2CCN(C(=O)[C@H]2CC(c4cccc(Cl)c4F)=NO2)[C@@H]3C(=O)Nc2ccc(C(=O)O)cc2)C1 [Example 300, 4-((S)-2-((R)-3-(3-chloro-2-fluorophenyl)-4,5-dihydroisoxazole-5-carbonyl)-5-((R)-3-methoxypyrrolidin-1-yl)-1,2,3,4-tetrahydroisoquinoline-1-carboxamido)benzoic acid, TFA salt]",4.15 nM,< 5 nM,
"COC1CCN(c2cccc3c2CCN(C(=O)C2CCN(c4cccc(Cl)c4F)C2)C3C(=O)Nc2ccc(C(=O)O)cc2)CC1 (stereo not shown) [Example 307, 4-(2-(1-(3-Chloro-2-fluorophenyl)pyrrolidine-3-carbonyl) 5-(4-methoxypiperidin-1-yl)-1,2,3,4-tetrahydroisoquinoline-1-carboxamido)benzoic acid, TFA salt]",,,"Ki [1, 5]: 593 nM; Ki [2, 6]: 165 nM"
"COC1CCN(c2cccc3c2CCN(C(=O)C2CCN(c4cccc(Cl)c4F)C2)C3C(=O)Nc2ccc(C(=O)O)cc2)CC1 (stereo not shown) [Example 308, 4-(2-(1-(3-Chloro-2-fluorophenyl)pyrrolidine-3-carbonyl)-5-(4-methoxypiperidin-1-yl)-1,2,3,4-tetrahydroisoquinoline-1-carboxamido)benzoic acid, TFA salt]",,,"Ki [1, 5]: 79.7 nM; Ki [2, 6]: 6.03 nM"
"COC1CCN(c2cccc3c2CCN(C(=O)c2cn(-c4cccc(Cl)c4F)nn2)[C@@H]3C(=O)Nc2ccc(C(=O)O)cc2)CC1 [Example 314, (S)-4-(2-(1-(3-chloro-2-fluorophenyl)-1H-1,2,3-triazole-4-carbonyl)-5-(4-methoxypiperidin-1-yl)-1,2,3,4-tetrahydroisoquinoline-1-carboxamido)benzoic acid, TFA salt]",10.3 nM,< 5 nM,
"COC1CCN(c2cccc3c2CCN(C(=O)c2cnn(-c4cccc(Cl)c4F)c2)[C@@H]3C(=O)Nc2ccc(C(=O)O)cc2)CC1 [Example 315, (S)-4-(2-(1-(3-chloro-2-fluorophenyl)-1H-pyrazole-4-carbonyl)-5-(4-methoxypiperidin-1-yl)-1,2,3,4-tetrahydroisoquinoline-1-carboxamido)benzoic acid, TFA salt]",19.6 nM,< 5 nM,
"COC1CCN(c2cccc3c2CCN(C(=O)c2cnn(-c4cccc(Cl)c4F)c2)[C@H]3C(=O)Nc2ccc(C(=O)O)cc2)CC1 [Example 316, (R)-4-(2-(1-(3-chloro-2-fluorophenyl)-1H-pyrazole-4-carbonyl)-5-(4-methoxypiperidin-1-yl)-1,2,3,4-tetrahydroisoquinoline-1-carboxamido)benzoic acid, TFA salt]",578 nM,,Ki [2]: 42.9 nM
"CN(C)C(=O)C1CCN(c2cccc3c2CCN(C(=O)c2cnn(-c4cccc(Cl)c4F)c2N)C3C(=O)Nc2ccc(C(=O)O)cc2)CC1 (stereo not shown) [Example 317, 4-(2-(5-Amino-1-(3-chloro-2-fluorophenyl)-1H-pyrazole-4-carbonyl)-5-(4-(dimethylcarbamoyl)piperidin-1-yl)-1,2,3,4-tetrahydroisoquinoline-1-carboxamido)benzoic acid, TFA salt]",41.1 nM,< 5 nM,
"CN1CCN(c2cccc3c2CCN(C(=O)c2cnn(-c4cccc(Cl)c4F)c2N)C3C(=O)Nc2ccc(C(=O)O)cc2)CC1=O (stereo not shown) [Example 318, 4-(2-(5-Amino-1-(3-chloro-2-fluorophenyl)-1H-pyrazole-4-carbonyl)-5-(4-methyl-3-oxopiperazin-1-yl)-1,2,3,4-tetrahydroisoquinoline-1-carboxamido)benzoic acid, TFA salt]",21.1 nM,< 5 nM,
"CN1CCN(c2cccc3c2CCN(C(=O)c2cncc(-c4cccc(Cl)c4)c2)C3C(=O)Nc2ccc(C(=O)O)cc2)CC1 (stereo not shown) [Example 320, 4-(2-(5-(3-Chlorophenyl)nicotinoyl)-5-(4-methylpiperazin-1-yl)-1,2,3,4-tetrahydroisoquinoline-1-carboxamido)benzoic acid, 2 TFA salt]",124 nM,158 nM,
"CN1CCN(c2cccc3c2CCN(C(=O)c2cncc(-c4ccccc4)c2)C3C(=O)Nc2ccc(C(=O)O)cc2)CC1 (stereo not shown) [Example 321, 4-(5-(4-Methylpiperazin-1-yl)-2-(5-phenylnicotinoyl)-1,2,3,4-tetrahydroisoquinoline-1-carboxamido)benzoic acid]",177 nM,236 nM,
"COC1CCN(c2cccc3c2CCN(C(=O)c2cc(-c4cccc(Cl)c4F)ccn2)C3C(=O)Nc2ccc(C(=O)O)cc2)CC1 (stereo not shown) [Example 322, 4-(2-(4-(3-Chloro-2-fluorophenyl)picolinoyl)-5-(4-methoxypiperidin-1-yl)-1,2,3,4-tetrahydroisoquinoline-1-carboxamido)benzoic acid, 2 TFA salt]",138 nM,8.21 nM,
"COC1CCN(c2cccc3c2CCN(C(=O)c2cncc(-c4cccc(Cl)c4F)c2)C3C(=O)Nc2ccc(C(=O)O)cc2)CC1 (stereo not shown) [Example 323, 4-(2-(5-(3-Chloro-2-fluorophenyl)nicotinoyl)-5-(4-methoxypiperidin-1-yl)-1,2,3,4-tetrahydroisoquinoline-1-carboxamido)benzoic acid, 2 TFA salt]",99.2 nM,5.28 nM,
"COC1CCN(c2cccc3c2CCN(C(=O)c2ccnc(-c4cccc(Cl)c4F)c2)C3C(=O)Nc2ccc(C(=O)O)cc2)CC1 (stereo not shown) [Example 324, 4-(2-(2-(3-Chloro-2-fluorophenyl)isonicotinoyl)-5-(4-methoxypiperidin-1-yl)-1,2,3,4-tetrahydroisoquinoline-1-carboxamido)benzoic acid, 2 TFA salt]",958 nM,37.1 nM,
"COC1CCN(c2cccc3c2CCN(C(=O)c2cccc(-c4cccc(Cl)c4F)n2)C3C(=O)Nc2ccc(C(=O)O)cc2)CC1 (stereo not shown) [Example 325, 4-(2-(6-(3-Chloro-2-fluorophenyl)picolinoyl)-5-(4-methoxypiperidin-1-yl)-1,2,3,4-tetrahydroisoquinoline-1-carboxamido)benzoic acid, 2 TFA salt]",,2400 nM,Ki ([1]; measured at 37° C. (*)): > 6000 nM
"COC1CCN(c2cccc3c2CCN(C(=O)N2CCCC(c4cccc(Cl)c4F)C2)C3C(=O)Nc2ccc(C(=O)O)cc2)CC1 (stereo not shown) [Example 326, 4-(2-(3-(3-Chloro-2-fluorophenyl)piperidine-1-carbonyl)-5-(4-methoxypiperidin-1-yl)-1,2,3,4-tetrahydroisoquinoline-1-carboxamido)benzoic acid, TFA salt]",,,Ki ([1]; measured at 37° C. (*)): > 2000 nM; Ki [2]: 330 nM
"COC1CCN(c2cccc3c2CCN(C(=O)c2cnn(-c4ccnc(C)c4)c2)C3C(=O)Nc2ccc(C(=O)O)cc2)CC1 (stereo not shown) [Example 327, 4-(5-(4-Methoxypiperidin-1-yl)-2-(1-(2-methylpyridin-4-yl)-1H-pyrazole-4-carbonyl)-1,2,3,4-tetrahydroisoquinoline-1-carboxamido)benzoic acid, TFA salt]",,816 nM,Ki ([1]; measured at 37° C. (*)): > 6000 nM
"COC1CCN(c2cccc3c2CCN(C(=O)c2cnn(-c4cccc(Cl)c4)c2)C3C(=O)Nc2ccc(C(=O)O)cc2)CC1 (stereo not shown) [Example 329, 4-(2-(1-(3-chlorophenyl)-1H-pyrazole-4-carbonyl)-5-(4-methoxypiperidin-1-yl)-1,2,3,4-tetrahydroisoquinoline-1-carboxamido)benzoic acid, TFA salt]",229 nM,26.6 nM,
"COC1CCN(c2cccc3c2CCN(C(=O)c2cnn(-c4cccnc4)c2)C3C(=O)Nc2ccc(C(=O)O)cc2)CC1 (stereo not shown) [Example 330, 4-(5-(4-methoxypiperidin-1-yl)-2-(1-(pyridin-3-yl)-1H-pyrazolc-4-carbonyl)-1,2,3,4-tetrahydroisoquinoline-1-carboxamido)benzoic acid, 2 TFA salt]",,3510 nM,Ki ([1]; measured at 37° C. (*)): > 6000 nM
